Test results as given in ChEMBL document CHEMBL1255199, “Endochin optimization: structure-activity and structure-property relationship studies of 3-substituted 2-methyl-4(1H)-quinolones with antimalarial activity” (J Med Chem, 2010).
In brackets after ≈: the same amount, converted by molar mass.

Key:
[1] = tested on: Plasmodium falciparum; assay: Antimalarial activity against chloroquine, mefloquine, pyrimethamine and atovaquone-resistant Plasmodium falciparum TM90-C2B infected in human A+ erythrocytes after 72 hrs by SYBR Green I assay; format: functional, organism-based
[2] = tested on: Plasmodium falciparum; assay: Antimalarial activity against chloroquine and pyrimethamine-resistant Plasmodium falciparum W2 infected in human A+ erythrocytes after 72 hrs by SYBR Green I assay; format: functional, organism-based; settings: W2, 72 h
[3] = tested on: J774; assay: Cytotoxicity against mouse J774 cells; format: cell-based
[4] = Lipophilicity, log D of the compound at pH 7.4; settings: buffer
[5] = Passive transcellular permeability of the compound at pH 7.4 by PAMPA; format: ADME; settings: for Papp: read-out: permeability
[6] = Passive transcellular permeability of the compound at pH 4 by PAMPA; format: ADME; settings: for Papp: read-out: permeability
[7] = in vitro; settings: mouse, J774 cells
Description: Cytotoxicity index, ratio of EC50 for mice (Mus musculus) J774 cells to EC50 for chloroquine, mefloquine, pyrimethamine and atovaquone-resistant Plasmodium falciparum TM90-C2B

[8] = physchem; settings: aqueous, pH 7.4
Description: Aqueous solubility of the compound at pH 7.4 by HPLC analysis

SMILES	EC50 [1] [µM]	EC50 [2] [µM]	EC50 [3] [µM]	logD [4]	Papp [5] [nm/s]	Papp [6] [nm/s]	selectivity ratio [7]	solubility [8] [µM]	permeability [5] [nm/s]	permeability [6] [nm/s]
Cc1ccc2[nH]c(C)c(Br)c(=O)c2c1	0.261	0.288	19.6	1.07	422	264	74.9	–	–	–
Cc1[nH]c2c(Cl)c(Cl)ccc2c(=O)c1-c1ccccc1	> 8.22	> 8.22	> 32.9	3.27	1970	1890	–	–	–	–
CCCCCCC/C=C/c1c(C)[nH]c2ccccc2c1=O	–	0.0129	–	4.26	–	1740	–	< 2	–	–
CCCCC#Cc1c(C)[nH]c2ccc(OC)cc2c1=O	> 9.21	> 9.21	> 36.8	5.25	–	–	> 4	–	24382	10206
COc1cc2[nH]c(C)c(CC(C)C)c(=O)c2cc1Cl	0.0633	0.0864	> 35.7	2.99	3680	4960	–	–	–	–
CCCCC#Cc1c(C)[nH]c2ccccc2c1=O	> 10.4	8.29	8.9	5.44	–	5000	–	–	21370.5	–
CCCCC/C=C/c1c(C)[nH]c2cc(OC)c(Cl)cc2c1=O	0.0106	0.0315	> 31.2	3.57	463	2800	> 2950	–	–	–
COc1ccc2nc(C)c(Cc3ccccc3)c(OC)c2c1	> 8.52	> 8.52	–	4.2	–	2940	–	2 (≈ 0.587 µg/mL)	10677.6	–
CCCCC#Cc1c(C)[nH]c2ccc(Cl)cc2c1=O	43.1	> 9.06	> 36.3	2.98	–	1710	> 0.84	2 (≈ 0.548 µg/mL)	–	–
Cc1[nH]c2cc(Cl)ccc2c(=O)c1-c1ccccc1	1.86	0.216	> 37.1	2.18	–	378	> 19.9	< 2	–	–
COc1cc2[nH]c(C)c(Cc3ccccc3)c(=O)c2cc1Cl	0.0686	0.0937	> 31.9	1.99	5660	5750	–	–	–	–
CCCCCCCCCc1c(C)[nH]c2cc(OC)c(Cl)cc2c1=O	0.00159	0.00603	> 28.7	4.74	–	–	> 18000	< 2	–	–
Cc1cc(=O)c2ccccc2[nH]1	> 62.8	> 44.7	> 62.8	–	15.4	15.6	–	–	–	–
CCN(CC)CCCC(C)Nc1ccnc2cc(Cl)ccc12 (stereo not given) [CHLOROQUINE]	0.0482	0.164	–	–	–	–	–	–	–	–
COc1ccc2[nH]c(C)c(Br)c(=O)c2c1	1.17	3	> 37.3	1.62	167	–	> 32	> 20	–	–
COc1c(Cc2ccccc2)c(C)nc2ccc(Cl)cc12	> 8.4	> 8.4	–	4.93	2680	3600	–	< 2	–	–
COc1cccc2c(=O)c(-c3ccccc3)c(C)[nH]c12	1.67	2.06	> 37.7	1.73	370	339	> 22.6	–	–	–
Cc1c(Cc2ccccc2)c(=O)c2cc(Cl)ccc2n1C	> 8.4	> 8.4	–	3.21	4890	5100	–	2 (≈ 0.596 µg/mL)	–	–
COc1ccc2c(OC)c(Cc3ccccc3)c(C)nc2c1	> 8.52	> 8.52	–	4.35	–	3250	–	2 (≈ 0.587 µg/mL)	12772.4	–

SMILES	EC50 [1] [µM]	EC50 [2] [µM]	EC50 [3] [µM]	logD [4]	Papp [5] [nm/s]	Papp [6] [nm/s]	selectivity ratio [7]	solubility [8] [µM]	permeability [5] [nm/s]	permeability [6] [nm/s]
CCCCCCCc1c(C)nc2ccccc2c1O	0.105	0.0932	5.1	3.39	–	–	48.3	–	–	–
COc1ccc2c(=O)cc(C)[nH]c2c1	12.5	> 13.2	> 52.8	1.2	89.1	–	> 4.2	–	–	–
C=C(CCCCCCC)c1c(C)[nH]c2ccccc2c1=O	–	0.0396	–	2.35	–	–	–	< 2	–	17556.7
Cc1[nH]c2cc(Cl)c(Cl)cc2c(=O)c1-c1ccccc1	0.35	0.569	> 32.9	3.05	–	–	> 93.3	< 2	–	–
Cc1[nH]c2ccccc2c(=O)c1/C=C/c1ccccc1	> 9.08	> 9.08	> 36.3	4.4	2240	2220	> 4	–	–	–
CCCCCC/C=C\Cc1c(C)[nH]c2ccccc2c1=O	–	0.102	–	5.94	–	–	–	< 2	–	–
COc1ccc2c(=O)c(-c3ccccc3)c(C)[nH]c2c1	0.269	0.287	> 37.7	1.56	98.9	–	> 140	–	–	–
CCCCC#Cc1c(C)[nH]c2cc(OC)c(Cl)cc2c1=O	4.21	2.16	15	2.45	–	1480	3.6	> 20	–	–
CCCCCCCCCc1c(C)[nH]c2ccccc2c1=O	0.0398	0.0241	2.8	4.33	–	–	69.9	–	–	–
Cc1[nH]c2ccc(F)cc2c(=O)c1Br	0.125	0.929	> 39.1	1.61	183	162	> 313	–	–	–
Cc1c(-c2ccccc2)c(=O)c2cc(Cl)ccc2n1C	> 8.8	> 8.8	–	–	–	–	–	–	–	–
O=C1C(O)=C([C@H]2CC[C@H](c3ccc(Cl)cc3)CC2)C(=O)c2ccccc21 [ATOVAQUONE]	6.23	0.00054	–	–	–	–	–	–	–	–
COc1ccc2[nH]c(C)c(-c3ccccc3)c(=O)c2c1	> 9.42	> 9.42	> 37.7	1.61	1260	–	> 4	–	–	–
COc1ccc2c(=O)c(Cc3ccccc3)c(C)n(C)c2c1	7.84	> 8.52	–	3.24	2990	4320	–	> 20	–	–
COc1cc2[nH]c(C)c(Br)c(=O)c2cc1Cl	–	–	–	0	1520	1250	–	–	–	–
Cc1nc2ccccc2c(OCc2ccccc2)c1Br	–	–	–	2.52	7940	997	–	–	–	–
COc1c(-c2ccccc2)c(C)nc2ccc(Cl)cc12	> 8.8	> 8.8	–	–	–	–	–	–	–	–
COc1ccc2c(c1)c(=O)c(Cc1ccccc1)c(C)n2C	8.06	> 8.52	–	2.73	2680	2950	–	10 (≈ 2.93 µg/mL)	–	–
